Measured values as given in publication PMC10993450, “New benzimidazole derivative compounds with in vitro fasciolicidal properties” (Parasites & Vectors, 2024).

Key:
[1] = test system: Fasciola hepatica eggs (ABZ-susceptible isolate); test: Egg hatch test (EHT), ABZ-susceptible isolates; format: cell-based; conditions: mean ± SEM; for % Ovicidal activity: ABZ-susceptible isolate; for killing at 5 µM: Fasciola hepatica, read-out: % Ovicidal activity susceptible isolate
Procedure: Eggs were recovered from gallbladders of cattle naturally infected with F. hepatica at the municipal slaughterhouse of León (Spain). For this, the bile of the gallbladders was filtered through sieves of different diameter size pores (500, 150, and 20 µm) using pressurized tap water. Eggs retained on the 20 µm pore size sieve were collected and stored at 4 °C in darkness until required within a maximum period of 2 months.
The susceptibility of the isolates to ABZ was confirmed by the egg hatch test (EHT) using an ABZ discriminant dose (DD) of 0.5 µM [23]. The technique is described in more detail below.
The in vitro anthelmintic activity of a total of 70 BZDs was initially tested on F. hepatica eggs recovered from gallbladders of cattle naturally infected with ABZ-susceptible isolates. The first screening was performed using a fixed concentration of 50 µM. […] Therefore, only BZDs with ovicidal activities over 80% progressed to the next assays at 10 µM. […] At this last concentration, the ovicidal effect of ABZ, ABZSO, and OXF was also evaluated.
The in vitro EHT described in the current study was based on previous studies. Briefly, 100–120 eggs were incubated in 990 µL of water and 10 μL of each working solution at 25 °C in the dark for a period of 12 h. After incubation, eggs were gently washed with tap water three times to facilitate compound removal and kept in darkness at 25 °C for 14 days. After this period, eggs were exposed to light for 2 h to stimulate the hatching of eggs. Then, hatched and unhatched eggs were evaluated and counted using an optical microscope. The term “hatched eggs” includes both hatched and embryonated eggs. Negative control eggs were incubated with 10 μL of DMSO in 990 μL of water, reaching a maximum DMSO concentration of 1% (v/v), while ABZ at 0.5 µM was used as positive control. Each compound at a specific concentration was tested in triplicate in the same EHT and repeated at least two different days.
With the aim to characterize the susceptibility of isolates from naturally infected cattle, the drug used in the EHT was ABZ, tested at a discriminant dose of 0.5 μM. Drug susceptibility is assumed when the ovicidal activity is over 70%, resistance when is lower than 40%, and a suspicion of resistance when activity is between these values at 0.5 μM.
The efficacy of each compound and drug was calculated as its ovicidal activity following the formula below: Ovicidal activity%=100×%eggs hatched in negative control-%egg hatched after drug incubation/%egg hatched in control.

[2] = Cytotoxicity assay, alamarBlue; format: cell-based, human; conditions: human, HepG2 cells; 72 h exposure, alamarBlue; read-out: CC50 Hep-G2
Procedure: The effect of the BZDs on cell viability was assessed on a human hepatocarcinoma HepG2 (ATCC® HB-8065™, USA) cell line. Only compounds screened at a concentration of 10 µM were evaluated. The detailed protocol is described in a previous study carried out by our research group. Briefly, 10,000 cells were seeded on 96-well plates and incubated with different concentrations of the compounds ranging from 1 to 100 µM at 37 °C and 5% CO2. After 72 h of exposure, viability of the cells was assessed using the alamarBlue (Fisher Scientific®, Spain) staining method according to the manufacturer’s recommendations.
The data are represented as mean ± standard error of media (SEM).

[3] = Intestinal tolerability assay on murine intestinal organoids; format: cell-based, mouse; conditions: C57BL/6, mouse, murine small-intestinal organoids, 72 h
Procedure: The murine intestinal organoid cultures were prepared following Stemcell Technologies™ protocols (https://www.stemcell.com/intestinal-epithelial-organoid-culture-with-intesticult-organoid-growth-medium-mouse-lp.html#protocols). Small intestine sections from C57BL/6 mice were excised, washed with ice-cold PBS, minced, and 2 mm segments were washed extensively. The segments were treated with Gentle Cell Dissociation Reagent (Stemcell Technologies™, Canada), resuspended in ice-cold PBS with 0.1% BSA and filtered. This process was repeated four times, resulting in four fractions. Cells from each fraction were centrifuged, washed, and resuspended in ice-cold DMEM/F12 supplemented with glutamine and HEPES 15 mM. Each fraction was mixed with Geltrex GFR LDEV-free (Gibco, Thermo Fisher Scientific, USA) and IntestiCult™ Organoid Grow Medium Mouse (Stemcell Technologies™, Canada), added to a 24-well plate and incubated at 37 °C for 10 min for matrix polymerization. The organoids were cultured in IntestiCult™ Organoid Grow Medium Mouse, with medium changes every 2 days and splitting after 7 days.
For intestinal tolerability assays, selected hit compounds were tested in mouse intestinal organoids at 25 and 50 µM final concentrations. The protocol, based on a previous work, involved the addition of Gentle Cell Dissociation Reagent (Stemcell Technologies™, Canada) on matrix domes, the disruption of the matrix, and the incubation the suspension. After centrifugation, cells were resuspended in DMEM/F12 supplemented with glutamine and HEPES 15 mM and centrifugated again. The pellet was resuspended in a mix of Geltrex GFR LDEV-free and IntestiCult™ Organoid Grow Medium Mouse. The mix was plated in 384-well plates, and after 4 days, mature organoids were exposed to the compounds. The positive control was hydrogen peroxide (0.15% v/v), and the negative control was DMSO (0.2%). Viability after 72 h was assessed using the alamarBlue assay.

[4] = test system: Teladorsagia circumcincta eggs; conditions: type II BZDs; read-out: IC50 against T. circumcincta eggs; cited from earlier work

| Compound | % Ovicidal activity ([1]; 10 µM) | % Ovicidal activity ([1]; 10 µM, listed as BDZ-31) | % Ovicidal activity ([1]; 10 µM, listed as BZD-31) | % Ovicidal activity ([1]; 50 µM) | % Ovicidal activity ([1]; 50 µM, listed as BZD-31) | killing at 5 µM [1] | CC50 at 72 h [2] | viability at 72 h, 25 µM [3] | viability at 72 h, 50 µM [3] | IC50 [4] | % Ovicidal activity ([1]; 50 µM, listed as BZD-46) | % Ovicidal activity ([1]; 10 µM, listed as BZD-56) | % Ovicidal activity ([1]; 50 µM, listed as BZD-56) | % Ovicidal activity ([1]; 10 µM, listed as BZD-59) | % Ovicidal activity ([1]; 50 µM, listed as BZD-59) |
| --- | --- | --- | --- | --- | --- | --- | --- | --- | --- | --- | --- | --- | --- | --- | --- |
| Cc1ccc2[nH]c(NCc3cccs3)nc2c1 [BZD31] | 99.58 ± 00.26% | 99.5% | ≥ 80% | 100.00 ± 0.00% | higher than 80% | 74% | > 50 µM | 60.5% | 52.4% |  |  |  |  |  |  |
| Cc1ccc2[nH]c(NC(=O)c3ccccc3)nc2c1 [BZD46] | 83.90 ± 02.87% |  |  | 98.59 ± 0.94% |  | 71.2 ± 9.91% | > 100 µM | 99.7% | > 87% | ~1 µM | higher than 80% |  |  |  |  |
| COc1ccc2[nH]c(NC(=O)c3ccccc3)nc2c1 [BZD56] | 93.93 ± 01.90% |  |  | 99.58 ± 0.22% |  | < 90% | > 100 µM | 82.5% | > 87% | ~1 µM |  | ≥ 80% | higher than 80% |  |  |
| O=C(Nc1nc2cc(Cl)ccc2[nH]1)c1ccccc1 [BZD59] | 91.16 ± 02.58% |  |  | 100.00 ± 0.00% |  | 73.5 ± 8.88% | > 100 µM | 82.7% | 56.7% | ~1 µM |  |  |  | ≥ 80% | higher than 80% |
